Source: PMC9124820, “In vitro evaluation of fenfluramine and norfenfluramine as victims of drug interactions” (Pharmacology Research & Perspectives, 2022)

How the values were obtained:
Assay type in all cases: in vitro ADME
MATE1 = target: T1, MATE1 (Homo sapiens, UniProt Q96FL8); experiment: Transporter substrate determination, uptake in HEK293-MATE1 cells; details: for Maximum Ratio (uptake in transporter‐expressing cells to empty‐vector control cells): HEK293‐MATE1, 0.1, 1, 10 µM, threshold ≥2‐fold; for substrate of the transporter: MATE1
T1 construct: host or cells: HEK293
T1 sequence (Q96FL8 1-570): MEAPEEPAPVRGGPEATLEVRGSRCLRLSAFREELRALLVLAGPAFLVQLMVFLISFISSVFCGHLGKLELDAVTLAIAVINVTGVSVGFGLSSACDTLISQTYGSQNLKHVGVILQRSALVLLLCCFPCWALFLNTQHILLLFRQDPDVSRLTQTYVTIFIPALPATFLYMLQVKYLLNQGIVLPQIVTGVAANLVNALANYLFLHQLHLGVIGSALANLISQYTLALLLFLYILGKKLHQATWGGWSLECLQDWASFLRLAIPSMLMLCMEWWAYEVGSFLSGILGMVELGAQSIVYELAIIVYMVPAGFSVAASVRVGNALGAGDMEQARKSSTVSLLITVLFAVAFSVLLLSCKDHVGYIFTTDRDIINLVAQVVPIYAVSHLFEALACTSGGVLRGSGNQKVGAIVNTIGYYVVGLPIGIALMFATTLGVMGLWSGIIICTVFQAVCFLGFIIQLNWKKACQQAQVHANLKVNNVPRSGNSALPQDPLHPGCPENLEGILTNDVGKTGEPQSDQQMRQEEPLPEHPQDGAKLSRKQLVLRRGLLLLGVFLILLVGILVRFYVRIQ
Protocol: (§1) LC‐MS/MS analyses to assess metabolic stability and identify the transporter substrate were performed using an API 4000 QTRAP mass spectrometer (SCIEX, Framingham, MA) with electrospray ionization in positive mode. Chromatography was performed using an Atlantis dC18 analytical column (100 × 2.1 mm, 5 µm; Waters Corporation, Milford, MA). Mobile phases were 0.2% v/v formic acid in water and 0.2% v/v formic acid in acetonitrile. For metabolic stability experiments, FFA and metabolites were eluted at a flow rate of 0.6 mL/min, with a linear gradient of 20%−80% acetonitrile from 0.30−2.0 min. For transporter substrate experiments, the gradient was slightly modified to achieve suitable chromatography. The mass transitions monitored were 232.0 > 159.0 for FFA and 348.0 > 330.0 for 1ʹ‐OH‐midazolam‐d4 internal standard.
(§2) FFA and nFFA were evaluated as substrates of the transporters breast cancer resistance protein (BCRP), organic anion transporter (OAT)1, OAT3, organic cation transporter (OCT)2, MATE1, MATE2‐K, and P‐glycoprotein multidrug transporter (P‐gp; also known as MDR1 and ABCB1), according to published methods.[25], [26], [27], [28], [29] Madin‐Darby canine kidney (MDCKII)‐BCRP cells (Netherlands Cancer Institute, Amsterdam, Netherlands) or human embryonic kidney (HEK)293 cells transfected with other transporters (Sekisui Medical Co., Ltd., Tokyo, Japan) were used. Transporter‐transfected and control cells were incubated with FFA or nFFA (0.1, 1, or 10 μM), and the amount of FFA and nFFA accumulated in the cells was measured by LC‐MS/MS as described above. The accumulation of positive control substrates in the presence and absence of an inhibitor served as a positive control for transporter function. […] BCRP substrate determination was made by bi‐directional permeability across MDCKII‐BCRP and control cells cultured on 24‐well transwell plates. Incubation medium containing probe substrate was added. Ten minutes later, transepithelial electrical resistance (TEER) was recorded and cells were preincubated at 37 ± 2°C for 30−60 min before FFA or nFFA or positive control substrate with the solvent control or positive control inhibitor was added to the donor (apical) chamber. […] Samples containing FFA, nFFA, or probe substrate were mixed with internal standard and analyzed by LC‐MS/MS. […] An aliquot was added to 96‐well plate containing scintillation fluid that was analyzed by a MicroBeta^2 scintillation counter (Perkin Elmer, Waltham, MA). Protein concentration was determined by a bicinchoninic acid (BCA) protein assay according to the manufacturer’s protocol (Thermo Fisher Scientific, Waltham, MA). Non‐radiolabeled compounds were resuspended in a 50:50 v/v methanol:water solution containing internal standard and were analyzed by LC‐MS/MS. […]

MATE2‐K = target: T2, MATE2‐K (Homo sapiens, UniProt Q86VL8); experiment: Transporter substrate determination, uptake in HEK293-MATE2K cells; details: for Maximum Ratio (uptake in transporter‐expressing cells to empty‐vector control cells): HEK293‐MATE2K, 0.1, 1, 10 µM, threshold ≥2‐fold; for substrate of the transporter: MATE2‐K
T2 construct: host or cells: HEK293
Protocol: as §1, §2

BCRP = target: T3, BCRP (Homo sapiens, UniProt Q9UNQ0); experiment: Transporter substrate determination, bi-directional permeability in MDCKII-BCRP cells; design: host or cells: MDCKII; details: for substrate of the transporter: BCRP; for Maximum Ratio (net flux in transporter‐expressing cells to control cells): MDCKII‐BCRP, 0.1, 1, 10 µM, threshold ≥2‐fold suggests substrate
T3 sequence (Q9UNQ0 1-655): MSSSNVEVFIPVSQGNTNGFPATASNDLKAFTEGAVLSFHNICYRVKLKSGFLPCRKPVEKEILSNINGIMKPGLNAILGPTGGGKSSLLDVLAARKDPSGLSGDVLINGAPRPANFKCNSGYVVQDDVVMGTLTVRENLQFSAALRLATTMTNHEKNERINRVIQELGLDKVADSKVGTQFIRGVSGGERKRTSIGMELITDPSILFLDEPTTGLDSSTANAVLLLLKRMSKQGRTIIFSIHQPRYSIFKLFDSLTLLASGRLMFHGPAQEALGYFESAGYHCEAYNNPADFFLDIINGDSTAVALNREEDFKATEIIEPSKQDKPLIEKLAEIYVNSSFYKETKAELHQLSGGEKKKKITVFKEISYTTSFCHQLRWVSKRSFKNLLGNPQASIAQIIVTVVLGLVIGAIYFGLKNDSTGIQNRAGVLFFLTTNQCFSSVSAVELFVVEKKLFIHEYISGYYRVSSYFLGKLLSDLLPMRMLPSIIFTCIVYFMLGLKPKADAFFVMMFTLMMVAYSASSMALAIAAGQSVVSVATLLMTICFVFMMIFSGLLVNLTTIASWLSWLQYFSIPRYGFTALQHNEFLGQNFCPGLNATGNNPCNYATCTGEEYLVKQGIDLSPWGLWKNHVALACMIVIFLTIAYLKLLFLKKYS
Protocol: as §1, §2

T2 sequence (Q86VL8 1-566 isoform Q86VL8-3): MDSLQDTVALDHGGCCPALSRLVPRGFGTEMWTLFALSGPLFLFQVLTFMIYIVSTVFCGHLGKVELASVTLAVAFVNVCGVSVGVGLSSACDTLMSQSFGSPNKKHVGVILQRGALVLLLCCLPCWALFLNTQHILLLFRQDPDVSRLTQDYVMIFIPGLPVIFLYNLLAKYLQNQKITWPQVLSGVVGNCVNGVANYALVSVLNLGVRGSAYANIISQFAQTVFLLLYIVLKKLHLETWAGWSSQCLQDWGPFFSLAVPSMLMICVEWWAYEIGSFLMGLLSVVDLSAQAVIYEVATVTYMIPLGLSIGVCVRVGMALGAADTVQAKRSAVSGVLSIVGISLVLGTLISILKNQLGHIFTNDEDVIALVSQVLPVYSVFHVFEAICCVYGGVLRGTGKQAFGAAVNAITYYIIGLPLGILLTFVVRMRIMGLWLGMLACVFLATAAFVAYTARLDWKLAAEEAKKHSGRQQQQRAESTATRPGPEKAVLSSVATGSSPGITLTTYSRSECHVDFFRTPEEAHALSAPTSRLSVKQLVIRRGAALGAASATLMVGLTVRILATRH

CCNC(C)Cc1cccc(C(F)(F)F)c1 (racemic) [FFA, (RS)‐ethyl (α‐methyl‐3‐trifluoromethylphenethyl)amine]
Maximum Ratio (uptake in transporter‐expressing cells to empty‐vector control cells) (MATE1): 1.10
substrate of the transporter (MATE1): not substrates
Maximum Ratio (uptake in transporter‐expressing cells to empty‐vector control cells) (MATE2‐K): 1.40
substrate of the transporter (MATE2‐K): not substrates
substrate of the transporter (BCRP): not substrates
Maximum Ratio (net flux in transporter‐expressing cells to control cells) (BCRP): 1.51

CC(N)Cc1cccc(C(F)(F)F)c1.Cl (stereo not drawn) [nFFA, 1‐(3‐(trifluoromethyl)phenyl)propan‐2‐amine hydrochloride]
Maximum Ratio (uptake in transporter‐expressing cells to empty‐vector control cells) (MATE1): 1.00
substrate of the transporter (MATE1): not substrates
Maximum Ratio (uptake in transporter‐expressing cells to empty‐vector control cells) (MATE2‐K): 1.50
substrate of the transporter (MATE2‐K): not substrates
substrate of the transporter (BCRP): not substrates
Maximum Ratio (net flux in transporter‐expressing cells to control cells) (BCRP): 1.42
